Measured values as given in BigSolDB 2.1.

For O=C([O-])c1ccccc1.[K+], the solubility (mole fraction) (in DMAc, 282.95 K) was 0.000243, the solubility (mole fraction) (in DMAc, 287.95 K) was 0.000263 and the solubility (mole fraction) (in DMAc, 293.25 K) was 0.000287. For the same molecule, the solubility (mole fraction) (in DMAc, 298.25 K) was 0.000309, the solubility (mole fraction) (in DMAc, 303.35 K) was 0.000333 and the solubility (mole fraction) (in DMAc, 308.25 K) was 0.000367. The solubility (mole fraction) (in DMAc, 312.85 K) was 0.000392, the solubility (mole fraction) (in DMAc, 317.95 K) was 0.000425 and the solubility (mole fraction) (in DMF, 282.95 K) was 0.000325. It also gave a solubility (mole fraction) (in DMF, 287.95 K) of 0.000372, a solubility (mole fraction) (in DMF, 293.25 K) of 0.000426 and a solubility (mole fraction) (in DMF, 298.25 K) of 0.000502. It also gave a solubility (mole fraction) (in DMF, 303.35 K) of 0.000587, a solubility (mole fraction) (in DMF, 308.25 K) of 0.000665 and a solubility (mole fraction) (in DMF, 312.85 K) of 0.000722. It also gave a solubility (mole fraction) (in DMF, 317.95 K) of 0.000778, a solubility (mole fraction) (in ethanol, 282.95 K) of 0.00133 and a solubility (mole fraction) (in ethanol, 287.95 K) of 0.00143. It also gave a solubility (mole fraction) (in ethanol, 293.25 K) of 0.00157, a solubility (mole fraction) (in ethanol, 298.25 K) of 0.00168 and a solubility (mole fraction) (in ethanol, 303.35 K) of 0.00181. It also gave a solubility (mole fraction) (in ethanol, 308.25 K) of 0.00192, a solubility (mole fraction) (in ethanol, 312.85 K) of 0.0021 and a solubility (mole fraction) (in ethanol, 317.95 K) of 0.00244. The solubility (mole fraction) (in formamide, 282.95 K) was 0.0439, the solubility (mole fraction) (in formamide, 287.95 K) was 0.0444 and the solubility (mole fraction) (in formamide, 293.25 K) was 0.045. The solubility (mole fraction) (in formamide, 298.25 K) was 0.0457, the solubility (mole fraction) (in formamide, 303.35 K) was 0.0465 and the solubility (mole fraction) (in formamide, 308.25 K) was 0.0473. The solubility (mole fraction) (in formamide, 312.85 K) was 0.0481, the solubility (mole fraction) (in formamide, 317.95 K) was 0.0489 and the solubility (mole fraction) (in isobutanol, 282.95 K) was 0.000248. The solubility (mole fraction) (in isobutanol, 287.95 K) was 0.000284, the solubility (mole fraction) (in isobutanol, 293.25 K) was 0.000325 and the solubility (mole fraction) (in isobutanol, 298.25 K) was 0.000355. For the same molecule, the solubility (mole fraction) (in isobutanol, 303.35 K) was 0.000402, the solubility (mole fraction) (in isobutanol, 308.25 K) was 0.000457 and the solubility (mole fraction) (in isobutanol, 312.85 K) was 0.000517. For the same molecule, the solubility (mole fraction) (in isobutanol, 317.95 K) was 0.000572, the solubility (mole fraction) (in isopropanol, 282.95 K) was 0.000225 and the solubility (mole fraction) (in isopropanol, 287.95 K) was 0.000256. For the same molecule, the solubility (mole fraction) (in isopropanol, 293.25 K) was 0.000286, the solubility (mole fraction) (in isopropanol, 298.25 K) was 0.000314 and the solubility (mole fraction) (in isopropanol, 303.35 K) was 0.000354. The solubility (mole fraction) (in isopropanol, 308.25 K) was 0.000409, the solubility (mole fraction) (in isopropanol, 312.85 K) was 0.000459 and the solubility (mole fraction) (in isopropanol, 317.95 K) was 0.000511. For the same molecule, the solubility (mole fraction) (in methanol, 282.95 K) was 0.0144, the solubility (mole fraction) (in methanol, 287.95 K) was 0.0148 and the solubility (mole fraction) (in methanol, 293.25 K) was 0.0153. It also gave a solubility (mole fraction) (in methanol, 298.25 K) of 0.0158, a solubility (mole fraction) (in methanol, 303.35 K) of 0.0162 and a solubility (mole fraction) (in methanol, 308.25 K) of 0.0167. The solubility (mole fraction) (in methanol, 312.85 K) was 0.0172, the solubility (mole fraction) (in methanol, 317.95 K) was 0.0181 and the solubility (mole fraction) (in n-butanol, 282.95 K) was 0.000586. It also gave a solubility (mole fraction) (in n-butanol, 287.95 K) of 0.000617, a solubility (mole fraction) (in n-butanol, 293.25 K) of 0.000646 and a solubility (mole fraction) (in n-butanol, 298.25 K) of 0.000673. The solubility (mole fraction) (in n-butanol, 303.35 K) was 0.000731, the solubility (mole fraction) (in n-butanol, 308.25 K) was 0.000795 and the solubility (mole fraction) (in n-butanol, 312.85 K) was 0.000898. It also gave a solubility (mole fraction) (in n-butanol, 317.95 K) of 0.000983, a solubility (mole fraction) (in n-pentanol, 282.95 K) of 0.000517 and a solubility (mole fraction) (in n-pentanol, 287.95 K) of 0.000604. The solubility (mole fraction) (in n-pentanol, 293.25 K) was 0.000693, the solubility (mole fraction) (in n-pentanol, 298.25 K) was 0.000776 and the solubility (mole fraction) (in n-pentanol, 303.35 K) was 0.000865. The solubility (mole fraction) (in n-pentanol, 308.25 K) was 0.000929, the solubility (mole fraction) (in n-pentanol, 312.85 K) was 0.000986 and the solubility (mole fraction) (in n-pentanol, 317.95 K) was 0.00105. For the same molecule, the solubility (mole fraction) (in n-propanol, 282.95 K) was 0.000735, the solubility (mole fraction) (in n-propanol, 287.95 K) was 0.000781 and the solubility (mole fraction) (in n-propanol, 293.25 K) was 0.000841. The solubility (mole fraction) (in n-propanol, 298.25 K) was 0.000892, the solubility (mole fraction) (in n-propanol, 303.35 K) was 0.000961 and the solubility (mole fraction) (in n-propanol, 308.25 K) was 0.00104. For the same molecule, the solubility (mole fraction) (in n-propanol, 312.85 K) was 0.00115 and the solubility (mole fraction) (in n-propanol, 317.95 K) was 0.00126.
